What was measured:
rats [1] = assay: Acetic acid test - abdominal cramps; type: in vivo, rat; conditions: Compound I-2 p.o. 10 mg/kg; 120 minutes after treatment
Procedure: Acetic Acid Test. Abdominal contraction was induced by intraperitoneal injection of 0.6% acetic acid solution in rats (10 mL/kg). The number of writhing (a twisting or contorting of the body due to pain) was recorded from the 5th to the 15th minute after injection.
(§1) Testing: 120 minutes after treatment. N=4/model/test. Results are expressed for each group as a percentage of activity calculated from the mean value of the vehicle-treated animals and compared to naïve animals, control paw, or cut-off value, depending on the test.

rats [2] = assay: Formalin test - score; type: in vivo, rat; conditions: Compound I-2 p.o. 10 mg/kg; 120 minutes after treatment
Procedure: Formalin Test. 2.5% formalin solution was injected by subplantar route into the right hind paw. Scoring of pain behavior was performed in rats for 36 minutes every 3 minutes according to the following scores:
0=normal behavior of the injected hind limb to support the body
1=slight touching of the injected paw on the floor to lightly support or not support the body
2=total withdrawal of the injected paw
3=licking, biting or shaking of the injected paw.
as §1

rats [3] = assay: Brennan model - electronic Von Frey test; type: in vivo, rat; conditions: Compound I-2 p.o. 10 mg/kg; 120 minutes after treatment
From the text: Brennan Model. Surgery: Surgery was done under gas anesthesia (2.5% isoflurane/3 L/min). For all rats, the plantar aspect of the left hind paw was exposed and a 1 cm longitudinal incision was made using a surgical blade, through the skin and fascia of the plantar aspect of the foot, starting 0.5 cm from the proximal edge of the heel and extending toward the toes. The plantaris muscle was elevated and incised longitudinally whereas the insertions remained intact. After hemostasis with gentle pressure, the skin was stitched up with two sutures. After surgery, animals recovered in their cages.
Electronic Von Frey Test. Tactile allodynia was assessed using the electronic Von Frey test 24 h after surgery. The test requires the application of an increasing pressure onto the plantar aspect of the hind paws. The apparatus exerted a steady force on the hind paws. Reaction thresholds were determined as the pressure (g) required to elicit paw withdrawal. Each reaction threshold measurement was repeated three times for both hind paws with intervals of approximately 2 to 3 mins.
as §1

CREB = assay: pCREB phosphorylation in rat primary neurons; type: cell-based; conditions: Primary neuron, 0.5 h, 30 μM DETA-NONOate, 30 min, 95% confidence interval 0.07 nM to 4.44 nM, read-out: EC50, phosphorylation of CREB at Ser133
Procedure: Compounds. Compound I-5 was dissolved in DMSO as a 10 mM solution and stored at −20° C. To achieve desired test concentrations, stock concentrations were serially diluted into DMSO and then diluted to the appropriate concentration in assay buffer.
Rat primary neurons culture. Neurons were isolated from Sprague Dawley rat embryos on embryonic day 18 (E18). Approximately 10 embryos were obtained from each rat, and whole brains were isolated from the embryos. Hippocampus and cortex were dissected from the brains under a stereoscopic microscope using two pairs of fine tweezers. The meninges were carefully removed. After dissection, the tissues were chopped and washed gently once with 10 mL of Ca^2+ and Mg^2+ free Hank's solution (HBSS, Corning cat #21-022-CM) in a 15-mL conical tube. After washing, 5 mL of a solution of 0.25% trypsin (Invitrogen cat #15090-046) and 0.1% deoxyribonuclease I (DNase I, Sigma cat #DN-25) were added to the tissues in the tube, which were then incubated at 37° C. for 15 min. […]
Assay Conditions. […] Medium was removed and cell were lysed and assay was performed according to Cisbio protocol (phospho-CREB (Ser133) catalog #64CREPEG) and the plate was read using Envision instrument (PerkinElmer).
Data Analysis. Data were analyzed with a 4-parameter fit (log(agonist) vs. response—variable slope) using GraphPad Prism Software v.7. […]

EC50 (CREB) [nM]	SMILES	% of activity vs. vehicle, acetic acid test abdominal cramps (rats [1]) [%]	% of activity vs. vehicle, formalin test score (early phase) (rats [2]) [%]	% of activity vs. vehicle, formalin test score (late phase) (rats [2]) [%]	% of activity vs. vehicle, Brennan model electronic Von Frey test (rats [3]) [%]
–	Fc1ccccc1Cn1nc(-c2nc(C(F)(F)F)n[nH]2)c2cccnc21 [Compound I-2]	59	61	11	16
0.55	FC(F)(F)c1n[nH]c(-c2nc(Cc3cncnc3)c3ccccn23)n1 [Compound I-5]	–	–	–	–

— US11690828B2, “Treatment of CNS diseases with sGC stimulators” (Cyclerion Therapeutics, Inc., priority 2016, dated 2023)
